What all share (format): in vivo
The test system of one experiment is tomato (Micro Tom). The experiment is described as follows: Evaluation Example 4: number of flowers of tomato. As to conditions: EGT concentration 0.1 mM; 64th day after seeding. As to the method: In a plastic pot having a square of 120 mm length and a height of 100 mm, 1 L of granular soil (Kumiai horticultural soil) was placed, and one individual tomato (Micro Tom) was sown in a pot.
(§1) In a thermostatic chamber set at room temperature of 25° C., the light period was 16 hours and the dark period was 8 hours. The light conditions were set using a fluorescent lamp (PLANT FLEC, 40 W LED fluorescent lamp for plant growth, electric bulb color, available from Nippon Medical and Chemical Instruments Co., Ltd.) such that the light intensity was 5000 lx in the central part under irradiation with the fluorescent lamp. Water supply was conducted from the bottom, and the water level was set at about 5 mm. Chemical treatment was started 4 weeks after seeding. More specifically, on the 25th, 27th, 29th, 31st, 33rd, 35th, and 37th days after seeding, 50 mL of the plant growth regulator was added instead of water supply.
(§2) As the plant growth regulator, the hot water extraction product of Pseudozyma siamensis (C-EGT-PSI) prepared in Production Example 1 was used. Furthermore, for comparison, a plant growth regulator formed from 0.1 mM of ergothioneine aqueous solution was used.
On the 64th day after seeding, the number of flowers was evaluated.

The next experiment deals with rapeseed. The experiment is described as follows: Evaluation Example 3: plant height of rapeseed, petri dish. The following applies: EGT concentration 1 mM; 7th day after seeding. As to the method: (§3) In a 9 cm petri dish on which filter paper was spread, 10 mL of the plant growth regulator was added. Ten seeds of wheat or rapeseed were sown per one petri dish. In a thermostatic chamber set at room temperature of 25° C., the light period was 16 hours and the dark period was 8 hours. The light conditions were set using a fluorescent lamp (PLANT FLEC, 40 W LED fluorescent lamp for plant growth, electric bulb color, available from Nippon Medical and Chemical Instruments Co., Ltd.) such that the light intensity was 5000 lx in the central part under irradiation with the fluorescent lamp.
(§4) As the plant growth regulator, the hot water extraction product prepared in Production Example 1 was used. Furthermore, for comparison, a plant growth regulator formed from 1 mM of ergothioneine aqueous solution was used.
(§5) The plant height of the wheat or rapeseed on the 7th day after seeding was evaluated.

Another experiment has as its system radish (Akamaru Hatsuka). The experiment is described as follows: Evaluation Example 5: underground part weight of radish. The following applies: EGT concentration 0.1 mM; 28th day after seeding. As to the method:
In a plastic pot having a diameter of 100 mm and a height of 135 mm, 600 mL of granular soil (Kumiai horticultural soil) was placed, and one individual radish (Akamaru Hatsuka) was sown in a pot.
The radish was managed in a greenhouse set at room temperature of 25° C. Chemical treatment was started 2 weeks after seeding. More specifically, on the 10th, 12th, 14th, and 16th days after seeding, 50 mL of the plant growth regulator was added.
as §2
On the 28th day after seeding, the underground part weight was evaluated.

The test system of experiment [1] is Arabidopsis thaliana (Col-0). In words: Evaluation Example 6: Arabidopsis thaliana treated with Pseudozyma siamensis extracts from various extraction methods. As to conditions: EGT concentration 0.1 mM. As for the experimental part:
(§6) One individual Arabidopsis thaliana (Col-0) was sown in a plastic pot having a diameter of 60 mm and a height of 55 mm. Plastic deep dishes each having a diameter of 160 mm and a height of 28 mm were prepared, and six pots were respectively placed therein. As soil, 45 mL of vermiculite, 22.5 mL of granular soil (Kumiai horticultural soil), and 22.5 mL of vermiculite were placed in the pot in this order.
(§7) In a growth chamber set at room temperature of 22° C., the light period was 16 hours and the dark period was 8 hours. The light conditions were set such that the light intensity was 5000 lx in the central part under irradiation with the fluorescent lamp. Water supply was conducted from the bottom, and the water level was set at about 5 mm. Chemical treatment was started […]. More specifically, on the 8th, 10th, 12th, and 14th days after seeding, 50 mL of the plant growth regulator was added instead of water supply.
(§8) As the plant growth regulator, various extracts of Pseudozyma siamensis obtained in Production Example 2 were used. Furthermore, for comparison, a plant growth regulator formed from 0.1 mM of ergothioneine aqueous solution was used.
On the 95th day after seeding, seeds were harvested, and the seed yield was evaluated.

For experiment [2], the system named is Arabidopsis thaliana (Col-0). The experiment is described as follows: Evaluation Example 7: Arabidopsis thaliana treated with Pseudozyma siamensis extracts from various extraction methods. As to conditions: EGT concentration 0.1 mM; 93rd day after seeding. As for the experimental part:
as §6, §7, §8
On the 93rd day after seeding, the plant height, the aboveground part weight, and the seed yield were evaluated.

In experiment [3] the test system is Arabidopsis thaliana (Col-0). The experiment is described as follows: Evaluation Example 2: seed yield of Arabidopsis thaliana, C-EGT-DCH. As to conditions: EGT concentration 0.1 mM; harvested 87th day after seeding. As for the experimental part:
as §6, §7
As the plant growth regulator, the hot water extraction product of Dirkmeia churashimaensis (C-EGT-DCH) prepared in Production Example 1 was used. Furthermore, for comparison, a plant growth regulator formed from 0.1 mM of ergothioneine aqueous solution was used.
On the 87th day after seeding, seeds were harvested, and the seed yield was evaluated.

The test system of experiment [4] is Arabidopsis thaliana (Col-0). The experiment is described as follows: Evaluation Example 1: seed yield of Arabidopsis thaliana, hot water extraction products. As to conditions: EGT concentration 1 mM, harvested 89th day after seeding. As to the method: as §6
as §1, with “of 22°” for “of 25°”, “started 2” for “started 4”, “the 8th, 10th, 12th,” for “the 25th, 27th, 29th, 31st, 33rd, 35th,”, “and 14th” for “and 37th”
As the plant growth regulator, the hot water extraction product prepared in Production Example 1 was used. […]
On the 89th day after seeding, seeds were harvested, and the seed yield was evaluated.

The subject of another experiment is wheat. In words: Evaluation Example 3: plant height of wheat, petri dish. The following applies: EGT concentration 1 mM; 7th day after seeding. As to the method:
as §3, §4, §5

[5] abbreviates: harvested 95th day after seeding.

Results on one molecule are retold here after patent US20240049723A1, “PLANT GROWTH REGULATOR OR METHOD FOR PROMOTING PLANT GROWTH” (Kureha Corporation, priority 2021, published 2024).

SMILES strings stand for the structures.

Consider `C[N+](C)(C)[C@@H](Cc1c[nH]c(=S)[nH]1)C(=O)[O-]` [EGT, ergothioneine], for which, in the experiment on tomato (Micro Tom), the “Flower number ratio to EGT” value was 1.0 and the “Flower number ratio to untreated control” value was found to be 1.3. For the same molecule, in the experiment on rapeseed, the “Rapeseed plant height ratio to EGT” value turned out to be 1.0 and the “Rapeseed plant height ratio to untreated control” value is 1.1. In the experiment on radish (Akamaru Hatsuka), the “Underground part weight ratio to EGT” value is 1.0 and the “Underground part weight ratio to untreated control” value amounted to 1.2. Moreover, in experiment [1] (95th day after seeding), the “Plant height ratio to EGT” value was determined as 1.0 and the “Plant height ratio to untreated control” value amounted to 1.1. In experiment [1] (setting [5]), the “Seed yield ratio to EGT” value stood at 1.0 and the “Seed yield ratio to untreated control” value is 1.2. For the same molecule, in experiment [2], the “Aboveground part weight ratio to EGT” value is reported as 1.0, the “Aboveground part weight ratio to untreated control” value came out at 1.1, the “Plant height ratio to EGT” value was determined as 1.0 and the “Plant height ratio to untreated control” value was found to be 1.1. In experiment [2], the “Seed yield ratio to EGT” value is reported as 1.0 and the “Seed yield ratio to untreated control” value came to 1.3. In experiment [3], the “Seed yield ratio to EGT” value worked out at 1.0 and the “Seed yield ratio to untreated control” value was 1.3. Besides, the “Seed yield ratio to EGT” value in experiment [4] (compared with 1 mM EGT) was determined as 1.0. In experiment [4] (50 mL on 8th, 10th, 12th, 14th days), the “Seed yield ratio to untreated control” value turned out to be 1.2. In the experiment on wheat, the “Wheat plant height ratio to EGT” value came to 1.0 and the “Wheat plant height ratio to untreated control” value is 1.1.
